Test results published in patent publication US5914235A (Eli Lilly and Company, priority 1997, dated 1999).
“And” between values parts separate entries of the source, which are not always exact repeats. Identical values can stand only once. Like-named read-outs stand apart in the source and are kept apart here. Values belong to the molecule of their own block, whether it stands above or below them.

How the values were obtained:
MAO = type: biochemical, human
Description: MAO activity was measured with [^14 C]tyramine as substrate using a modification of the method by Yu [P. H. YU, Neuromethods, Neurotransmitter Enzymes, A. A. Boulton, G. B. Baker and P. H. Yu, 235-272, Humana Press, Clifton, N.J. (1986))]. Membranes were incubated with [^14 C]tyramine (0.5 mM) at 21° C., pH 7.4 for 40 min. Enzyme activity was stopped by lowering pH to 1.0 with 2 M HCl. The radiolabeled products of MAO degradation (p-hydroxyphenylacetic acid and p-hydroxymandelic acid) were then extracted into toluene ethyl acetate by vortexing for 15 min and aliquots of the organic phase counted. Extraction was enhanced by the addition of a 1 mg/ml carrier concentration of both products and saturating concentration of NaCl.
(§1) Binding data were calculated as fmol bound ligand/mg protein. Protein was determined by the Lowry method. Binding constants were calculated by nonlinear curve fitting (Lundon Software) and the fit to a one or two site model was tested using two-way ANOVA. Relative MAO activity was calculated as CPM/mg protein/min or moles/mg protein/min.
Data are mean±SEM of 3 experiments. […] The data is depicted in FIG. 5.
Data are expressed as percent of maximum binding or MAO activity and represent the mean±SEM of 3 experiments. […] The data is depicted in FIG. 6.

rat liver MAO B = conditions: cited from earlier work
rat liver MAO A = conditions: cited from earlier work
[1] = biological target: T1, [^3 H]BFI binding sites (I2 binding site) (Homo sapiens, UniProt P27338); assay: Ligand competition for [^3 H]BFI binding in human cortex; conditions: for Affinity in competition for [^3 H]BFI binding: human brain
T1 construct: Frozen sections of human cortex (Brodman's areas 8,9,10), human medulla; from tissue; host or cells: P2 membranes of human cortex (Brodmann areas 8, 9, 10) and human medulla (NRL)
T1 sequence (P27338 2-520 limits assumed): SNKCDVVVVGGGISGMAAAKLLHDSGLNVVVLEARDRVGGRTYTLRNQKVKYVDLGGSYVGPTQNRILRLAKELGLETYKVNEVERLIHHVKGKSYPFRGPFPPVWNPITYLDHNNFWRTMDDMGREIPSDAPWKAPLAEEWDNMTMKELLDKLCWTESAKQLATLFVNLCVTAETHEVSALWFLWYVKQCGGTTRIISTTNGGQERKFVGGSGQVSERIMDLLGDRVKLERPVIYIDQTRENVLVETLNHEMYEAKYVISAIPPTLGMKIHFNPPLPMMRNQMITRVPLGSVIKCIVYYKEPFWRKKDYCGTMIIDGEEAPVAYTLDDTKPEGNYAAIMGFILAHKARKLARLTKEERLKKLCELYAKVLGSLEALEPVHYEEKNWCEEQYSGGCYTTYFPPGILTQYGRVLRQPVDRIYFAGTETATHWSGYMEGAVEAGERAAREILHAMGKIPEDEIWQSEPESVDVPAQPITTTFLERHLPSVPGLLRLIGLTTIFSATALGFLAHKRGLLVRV
Description: (§2) Membrane fractions were isolated at 4° C. using differential centrifugation as follows: Homogenates were centrifuged at 500×g to remove nuclei and cell debris followed by 45,000×g to obtain the P2 membrane fraction. The P2 pellet was washed twice with 50 mM Tris-HCl buffer. Between washes the pellet resuspension was incubated for 30 min at 25° C. to allow dissociation of endogenous ligands from their receptors. The final pellet was resuspended in 50 mM Tris-HCl, pH 7.5, and stored at -70° C. until used.
as §1

I2 sites = conditions: read-out: KD of [^3 H]BFI binding; rabbit cortex, previously reported; cited from earlier work
[2] = biological target: [^3 H]BFI binding sites (I2 binding site); assay: Ligand competition for [^3 H]BFI binding in human cortex; conditions: human cortex, 8 nM [^3 H]BFI, two-site fit
Description: as §2, §1

SMILES: N[C@@H]1C[C@H]1c1ccccc1 (relative stereo) [TCP, Tranylcypromine]
Potentiation of BFI binding in guinea pig tissues by TCP (BFI binding sites): not seen
Inhibition of MAO activity (MAO; 1 μM TCP preincubation (maximal potentiation of binding)): 80%
TCP concentration of maximal inhibition of MAO activity (MAO; 40 min preincubation, washed): 3 µM
Maximal inhibition of MAO activity (MAO; TCP concentrations >3 μM): 95%

SMILES: c1ccc2oc(C3=NCCN3)cc2c1 [BFI, 2-(2-benzofuranyl)-2-imidazoline]
Inhibition of rat liver MAO B (rat liver MAO B): inhibits
Inhibition of rat liver MAO A (rat liver MAO A): inhibits

Ki [1]: 9400 ± 1800 nM
Affinity in competition for [^3 H]BFI binding [1]: low affinity
SMILES: COC1(C2=NCCN2)COc2ccccc2O1 (stereo not drawn) [RX821002]

SMILES: c1ccc2oc(C3=NCCN3)cc2c1 [[^3 H]BFI, 2-(2-benzofuranyl)-2-imidazoline]
Kd (I2 sites): 2.7 nM

SMILES: N=C(N)NC(=O)c1nc(Cl)c(N)nc1N [amiloride]
Affinity in competition for [^3 H]BFI binding [1]: low affinity

Ki [1]: 13 ± 4.5 nM
Affinity in competition for [^3 H]BFI binding [1]: high affinity
SMILES: c1ccc(C2CC2)c(OCC2=NCCN2)c1 [cirazoline]

SMILES: Clc1cccc(Cl)c1N=C1NCCN1 [clonidine]
Affinity in competition for [^3 H]BFI binding [1]: low affinity
Ki ([2]; read-out: Ki for competition of [^3 H]BFI binding, two-site model, first (high-affinity) value): 73.4 ± 24.6 nM
Ki ([2]; read-out: Ki for competition of [^3 H]BFI binding, two-site model, second (low-affinity) value): 86300 ± 11100 nM

SMILES: N=C(N)N/N=C/c1c(Cl)cccc1Cl [guanabenz]
Ki [1]: 72.5 ± 24 nM
Affinity in competition for [^3 H]BFI binding [1]: high affinity

Ki [1]: 80.4 ± 17 nM
SMILES: c1ccc2c(c1)OCC(C1=NCCN1)O2 (stereo not drawn) [idazoxan]
Inhibition of rat liver MAO A (rat liver MAO A): not

Affinity in competition for [^3 H]BFI binding [1]: low affinity
SMILES: COc1nc(C)nc(Cl)c1N=C1NCCN1 [moxonidine]

SMILES: C#CCN(C)Cc1ccccc1 [pargyline]
Inhibition of basal MAO activity (MAO; preincubation with 10 μM pargyline, all durations (10, 30, 60 min)): > 90% and 90%
